For the test, the system named is C. elegans. Description: microbe, parasite or virus in culture. The conditions noted are these: Caenorhabditis elegans.
The mark [1] stands for this setting: 0 h, read-out: Percentage of motility inhibition 0 h, Table S2, C. elegans SS assay, 110 μM, 0 h, averages of 4 data points.
[2] abbreviates: 24 h, read-out: Percentage of motility inhibition 24 h, Table S2, C. elegans SS assay, 110 μM, 24 h, averages of 4 data points.
The mark [3] stands for this setting: 0 h, read-out: Percentage of motility inhibition 0 h.
Where [4] appears, read: 24 h, read-out: Percentage of motility inhibition 24 h.

SMILES strings stand for the structures. Read-outs that look alike come from different tables or passages of the source.

On to `Cc1cc(C)nc(NS(=O)(=O)c2ccc(N)cc2)n1` [Sulfamethazine], for which the inhibition at 110 µM by setting is: under setting [1], 5%; under setting [2], 3%.

In the case of `CC(=O)N[C@H]1[C@H]([C@H](O)[C@H](O)CO)OC(C(=O)O)=C[C@@H]1N=C(N)N` [Zanamivir], the inhibition at 110 µM reads like this: under setting [1], 22%; under setting [2], 6%.

As for `CC[C@]12CCCN3CCc4c(n(c5ccccc45)[C@@](O)(C(=O)OC)C1)[C@@H]32` [Vincamine], the inhibition at 110 µM under setting [1] was 0%.

Turning to `COc1cc([C@H]2Oc3cc([C@H]4Oc5cc(O)cc(O)c5C(=O)[C@@H]4O)ccc3O[C@@H]2CO)ccc1O` [Silybin A], the inhibition at 110 µM amounted to 22% under setting [1] and 20% under setting [2].

As for `CCCCCCCCCC(=O)O[C@H]1CC[C@H]2[C@@H]3CCC4=CC(=O)CC[C@@H]4[C@H]3CC[C@]12C` [Nandrolone decanoate], the inhibition at 110 µM was 29% under setting [1] and 31% under setting [2].

On to `O=C(O)c1cc(O)c(O)c(O)c1` [Gallic acid], for which the inhibition at 110 µM under setting [1] was 66% and the inhibition at 110 µM under setting [2] came to 34%.

Regarding `COc1ccc(-c2cc(=O)c3c(O)c(OC)c(O)cc3o2)cc1` [Pectolinarigenin], the inhibition at 110 µM runs as follows: under setting [1], 4%; under setting [2], 0%.

Take `C[C@@H]1O[C@@H](Oc2c(-c3ccc(O)c(O)c3)oc3cc(O)cc(O)c3c2=O)[C@H](O)[C@H](O)[C@H]1O` [Quercitrin]: the inhibition at 110 µM was found to be 4% under setting [1] and 0% under setting [2].

Take `C[C@@H]1C[C@@H]([C@H](O)CC2CC(=O)NC(=O)C2)C(=O)[C@@H](C)C1` [Cycloheximide]: the inhibition at 110 µM was found to be 17% under setting [1] and 0% under setting [2].

As for `O=c1cc(-c2ccccc2)oc2c(O)c(O)cc(O)c12` [Norwogonin], the inhibition at 110 µM runs as follows: under setting [1], 0%; under setting [2], 12%.

For the compound `c1ccc(C2CN3CCSC3=N2)cc1` (stereo not drawn) [Tetramisole, reference compound], the inhibition at 110 µM amounted to 78 ± 2% (0 h, read-out: Inhibition (%) 110 μM (0 h), C. elegans L4 motility, 110 μM, 0 h, mean ± SD of four experiments) and 82 ± 3% (24 h, read-out: Inhibition (%) 110 μM (24 h), C. elegans L4 motility, 110 μM, 24 h, mean ± SD of four experiments).

`OC[C@@H](O)[C@H](O)[C@@H](O)CO` [Xylitol]: the inhibition at 110 µM runs as follows: under setting [1], 22%; under setting [2], 13%.

On to `C=C[C@@]1(C)CC(=O)[C@]2(O)[C@@]3(C)[C@@H](O)CCC(C)(C)[C@@H]3[C@H](O)[C@H](OC(C)=O)[C@@]2(C)O1` [Forskolin], for which the inhibition at 110 µM reads like this: under setting [1], 0%; under setting [2], 2%.

For `CSc1ccc(OCc2ncc([N+](=O)[O-])n2C)cc1` [Fexinidazole], the inhibition at 110 µM under setting [1] is 11% and the inhibition at 110 µM under setting [2] was determined as 29%.

For `C=C(CC[C@@H](C(=O)O)[C@H]1[C@H](O)C[C@@]2(C)C3=CC[C@H]4C(C)(C)[C@@H](O)CC[C@]4(C)C3=CC[C@]12C)C(C)C` [Dehydrotumulosic acid], the inhibition at 110 µM runs as follows: under setting [1], 11%; under setting [2], 21%.

Consider `OC[C@@H](O)[C@@H](O)[C@H](O)[C@@H](O)CO` [D-Sorbitol], for which the inhibition at 110 µM under setting [1] amounted to 0% and the inhibition at 110 µM under setting [2] amounted to 7%.

Turning to `O=c1c(-c2ccc(O)cc2)coc2cc(O)cc(O)c12` [Genistein], the inhibition at 110 µM under setting [1] is 5% and the inhibition at 110 µM under setting [2] came out at 2%.

As for `COc1ccc(NS(=O)(=O)c2ccc(N)cc2)nn1` [Sulfamethoxypyridazine], the inhibition at 110 µM reads like this: under setting [1], 2%; under setting [2], 8%.

In the case of `COc1cc(NS(=O)(=O)c2ccc(N)cc2)ncn1` [Sulfamonomethoxine], the inhibition at 110 µM was found to be 6% under setting [1] and 1% under setting [2].

Turning to `C[C@@H]1CCC=C2C(=O)C[C@H]3OOC(C)(C)[C@H]3[C@]21C` [Nardosinone], the inhibition at 110 µM was found to be 0% under setting [1] and 13% under setting [2].

With `CC(=O)Nc1ncc([N+](=O)[O-])s1` [Nithiamide], the inhibition at 110 µM reads like this: under setting [1], 32%; under setting [2], 7%.

As to `OB1OCc2cc(F)ccc21` [AN‐2690], the inhibition at 110 µM under setting [1] was 0% and the inhibition at 110 µM under setting [2] turned out to be 12%.

Take `Cc1noc(NS(=O)(=O)c2ccc(N)cc2)c1C` [Sulfisoxazole]: the inhibition at 110 µM runs as follows: under setting [1], 9%; under setting [2], 7%.

For the compound `CC(C)(CO)[C@@H](O)C(=O)NCCC(=O)O` [D-Pantothenic acid], the inhibition at 110 µM came to 9% under setting [1] and 10% under setting [2].

With `COc1ccc([C@@H]2CC(=O)c3c(O)cc(O[C@@H]4O[C@H](CO)[C@@H](O)[C@H](O)[C@H]4O[C@@H]4O[C@@H](C)[C@H](O)[C@@H](O)[C@H]4O)cc3O2)cc1` [Poncirin], the inhibition at 110 µM by setting is: under setting [1], 13%; under setting [2], 3%.

For `CCN1C[C@]2(COC)[C@H](O)C[C@H](OC)[C@]34C1[C@H]([C@H](OC)[C@H]23)[C@]1(O)[C@H]2[C@@H](O)[C@](O)(C[C@H]24)[C@@H](OC)[C@@H]1O` [Aconine], the inhibition at 110 µM was 10% under setting [1] and 0% under setting [2].

`C[C@H]1[C@H](C)CC[C@]2(C(=O)O)CC[C@]3(C)C(=CC[C@@H]4[C@@]5(C)C[C@@H](O)[C@H](O)[C@@](C)(CO)[C@@H]5[C@H](O)C[C@]43C)[C@H]12` [Madecassic acid]: the inhibition at 110 µM is, setting by setting: under setting [1], 1%; under setting [2], 31%.

For the compound `Oc1c(Cl)cc(Cl)c2cccnc12` [Chloroxine], the inhibition at 110 µM is, setting by setting: under setting [1], 43%; under setting [2], 34%.

Consider `CSCC1CN(/N=C/c2ccc([N+](=O)[O-])o2)C(=O)O1` (stereo not drawn) [Nifuratel], for which the inhibition at 110 µM runs as follows: under setting [1], 0%; under setting [2], 4%.

Consider `CCC12C=CCN3CC[C@@]4(c5ccc(OC)cc5N(C)[C@H]4[C@@](O)(C(=O)OC)[C@@H]1OC(C)=O)[C@@H]32` (stereo partly drawn) [Vindoline], for which the inhibition at 110 µM by setting is: under setting [1], 14%; under setting [2], 0%.

As for `Cc1c([C@H](C)[C@@H]2NC[C@@H](C)C[C@H]2O)ccc2c1C[C@H]1[C@H]2CC=C2C[C@@H](O)CC[C@@]21C` [Veratramine], the inhibition at 110 µM came out at 9% under setting [3] and 2% under setting [4].

In the case of `O=[N+]([O-])c1cncn1CCN1CCOCC1` [Nimorazole], the inhibition at 110 µM was determined as 0% under setting [1] and 0% under setting [2].

As for `CCCCCCCCCCCCCCCCO` [1-Hexadecanol], the inhibition at 110 µM runs as follows: under setting [1], 17%; under setting [2], 0%.

In the case of `Cc1nnc(NS(=O)(=O)c2ccc(N)cc2)s1` [Sulfamethizole], the inhibition at 110 µM came to 4% under setting [1] and 0% under setting [2].

`C/C=C1/[C@H](O[C@@H]2O[C@H](CO)[C@@H](O)[C@H](O)[C@H]2O)OC=C(C(=O)OC)[C@H]1CC(=O)OCCc1ccc(O)c(O)c1` [Oleuropein]: the inhibition at 110 µM is, setting by setting: under setting [1], 0%; under setting [2], 0%.

Regarding `C=C1C(=O)O[C@@H]2C[C@@]3(C)CCCC(=C)[C@@H]3C[C@H]12` [Isoalantolactone], the inhibition at 110 µM is, setting by setting: under setting [1], 2%; under setting [2], 12%.

Turning to `O=C1N[C@@H](Cc2c[nH]c3ccccc23)C(=O)N2CCC[C@@H]12` [Brevianamide F], the inhibition at 110 µM was found to be 31% under setting [3] and 18% under setting [4].

Regarding `NC(=O)N/N=C/c1ccc([N+](=O)[O-])o1` [Nitrofurazone], the inhibition at 110 µM is 25% under setting [1] and 22% under setting [2].

These data come from paper PMC11855827, “High-Throughput Screening of Five Compound Libraries for Anthelmintic Activity and Toxicity Leads to the Discovery of Two Flavonoid Compounds” (International Journal of Molecular Sciences, 2025).
